Measurements reported in patent US20250243196A1, “CITRON KINASE INHIBITORS” (The Cleveland Clinic Foundation, priority 2021, published 2025).

How the values were obtained:
Format in all cases: biochemical
[1] = target: BIKE(h) (Homo sapiens (Human), UniProt Q9NSY1); assay: KinaseProfiler panel; design: dose or concentration left out as unconfirmed; settings: activity remaining
[2] = target: Ret(h) (Homo sapiens (Human), UniProt P07949); assay: KinaseProfiler panel; design: dose or concentration left out as unconfirmed; settings: activity remaining
[3] = target: MRCKγ(h) (Homo sapiens (Human), UniProt Q6DT37); assay: KinaseProfiler panel; design: dose or concentration left out as unconfirmed; settings: activity remaining
[4] = target: GRK5(h) (Homo sapiens (Human), UniProt P34947); assay: KinaseProfiler panel; design: dose or concentration left out as unconfirmed; settings: activity remaining
[5] = target: Citron kinase (Homo sapiens (Human), UniProt O14578); assay: Radiometric citron kinase assay (Eurofins Cat #16-040KP); settings: mean of at least two independent assays; read-out: Radiometric CitK IC50
How it was run: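 Radiometric KinaseProfiler format: test compound incubated with kinase, substrate, cofactors and radiolabelled ATP; unreacted ATP washed away and radiolabelled phosphate incorporated into substrate measured. IC50 derived from inhibition of phosphorylation. Values are means of at least two independent assays.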

[6] = target: LTK(h) (Homo sapiens (Human), UniProt P29376); assay: KinaseProfiler panel; design: dose or concentration left out as unconfirmed; settings: activity remaining
[7] = target: WNK3(h) (Homo sapiens (Human), UniProt Q9BYP7); assay: KinaseProfiler panel; design: dose or concentration left out as unconfirmed; settings: activity remaining
[8] = target: Wee1B(h) (Homo sapiens (Human), UniProt P0C1S8); assay: KinaseProfiler panel; design: dose or concentration left out as unconfirmed; settings: activity remaining
Sequence of Wee1B(h) (P0C1S8 whole entry): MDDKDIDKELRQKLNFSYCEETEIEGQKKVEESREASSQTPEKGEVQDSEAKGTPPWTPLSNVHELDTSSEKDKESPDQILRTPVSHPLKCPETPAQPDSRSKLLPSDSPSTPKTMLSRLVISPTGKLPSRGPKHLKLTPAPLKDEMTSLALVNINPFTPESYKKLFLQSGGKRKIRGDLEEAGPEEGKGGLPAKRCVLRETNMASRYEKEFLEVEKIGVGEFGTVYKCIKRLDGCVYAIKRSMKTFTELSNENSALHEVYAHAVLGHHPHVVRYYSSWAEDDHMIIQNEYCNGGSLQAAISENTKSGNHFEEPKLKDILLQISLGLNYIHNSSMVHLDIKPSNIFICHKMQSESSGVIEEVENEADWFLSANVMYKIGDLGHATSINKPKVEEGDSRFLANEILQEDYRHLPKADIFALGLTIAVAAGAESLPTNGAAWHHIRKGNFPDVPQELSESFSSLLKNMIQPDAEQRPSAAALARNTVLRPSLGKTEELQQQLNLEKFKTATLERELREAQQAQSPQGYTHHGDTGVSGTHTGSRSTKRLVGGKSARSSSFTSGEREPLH

[9] = target: BIKE (Homo sapiens (Human), UniProt Q9NSY1); assay: KinaseProfiler radiometric assay (16-044KP); settings: mean of at least two independent experiments
Sequence of BIKE (Q9NSY1 whole entry): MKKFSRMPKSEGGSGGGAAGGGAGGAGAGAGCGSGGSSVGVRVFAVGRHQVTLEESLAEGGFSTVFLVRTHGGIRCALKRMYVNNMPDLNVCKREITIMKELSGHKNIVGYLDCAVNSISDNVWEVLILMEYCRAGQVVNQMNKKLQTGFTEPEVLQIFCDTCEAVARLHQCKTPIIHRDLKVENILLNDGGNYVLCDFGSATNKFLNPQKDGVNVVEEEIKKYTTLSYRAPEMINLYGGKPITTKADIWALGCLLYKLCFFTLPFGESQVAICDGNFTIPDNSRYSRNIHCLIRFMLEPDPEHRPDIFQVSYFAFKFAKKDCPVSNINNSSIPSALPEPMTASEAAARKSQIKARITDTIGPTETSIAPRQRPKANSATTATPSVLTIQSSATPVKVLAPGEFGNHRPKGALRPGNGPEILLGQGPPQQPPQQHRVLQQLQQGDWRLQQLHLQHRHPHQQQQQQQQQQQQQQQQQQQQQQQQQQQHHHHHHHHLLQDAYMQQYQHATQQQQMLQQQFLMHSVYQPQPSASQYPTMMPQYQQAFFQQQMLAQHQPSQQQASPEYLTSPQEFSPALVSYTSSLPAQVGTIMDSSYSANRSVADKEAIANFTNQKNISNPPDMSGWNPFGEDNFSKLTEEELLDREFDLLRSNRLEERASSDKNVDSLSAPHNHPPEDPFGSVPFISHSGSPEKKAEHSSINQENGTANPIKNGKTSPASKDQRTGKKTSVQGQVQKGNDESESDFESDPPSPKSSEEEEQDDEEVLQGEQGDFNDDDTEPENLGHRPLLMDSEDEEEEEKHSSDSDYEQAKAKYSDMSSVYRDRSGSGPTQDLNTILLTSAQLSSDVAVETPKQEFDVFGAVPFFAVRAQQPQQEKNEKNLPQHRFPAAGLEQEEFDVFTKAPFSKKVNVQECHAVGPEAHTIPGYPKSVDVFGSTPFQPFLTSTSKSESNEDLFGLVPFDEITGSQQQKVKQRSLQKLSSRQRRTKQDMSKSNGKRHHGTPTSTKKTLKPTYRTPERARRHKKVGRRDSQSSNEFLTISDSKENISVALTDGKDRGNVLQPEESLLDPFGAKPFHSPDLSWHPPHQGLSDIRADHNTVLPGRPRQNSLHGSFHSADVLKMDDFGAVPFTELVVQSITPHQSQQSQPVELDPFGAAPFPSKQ
Excerpt: In another aspect, disclosed is a method of inhibiting citron kinase in a sample, comprising contacting the sample with a compound described herein (e.g., a compound of formula (I) or a pharmaceutically acceptable salt thereof), or a pharmaceutical composition described herein (e.g., a pharmaceutical composition comprising a compound of formula (I) or a pharmaceutically acceptable salt thereof), in an amount effective to inhibit citron kinase. In some embodiments, the step of contacting the sample with the compound comprises administering the compound to a subject (e.g., a subject) suffering from cancer. Methods of determining kinase inhibition are well known in the art. For example, kinase activity of an enzyme and the inhibitory capacity of a test compound can be determined by measuring enzyme specific phosphorylation of a substrate. Commercial assays and kits can be employed. For example, kinase inhibition can be determined using a radiometric binding assay, such as using KinaseProfiler™ technology (Eurofins Discovery). This assay method directly detects product formation without the use of modified substrates or coupling enzymes. […]
The effect of various compounds on the inhibition of other kinases has also been determined. Table 2 reports measured IC50 values; value units are nanomolar inhibition.

[10] = target: SLK(h) (Homo sapiens (Human), UniProt Q9H2G2); assay: KinaseProfiler panel; design: dose or concentration left out as unconfirmed; settings: activity remaining
[11] = target: PKCβII(h) (Homo sapiens (Human), UniProt P05771); assay: KinaseProfiler panel; design: dose or concentration left out as unconfirmed; settings: activity remaining
[12] = target: ZAK(h) (Homo sapiens (Human), UniProt Q9NYL2); assay: KinaseProfiler panel; design: dose or concentration left out as unconfirmed; settings: activity remaining
[13] = target: Rsk2(h) (Homo sapiens (Human), UniProt P51812); assay: KinaseProfiler panel; design: dose or concentration left out as unconfirmed; settings: activity remaining
[14] = target: Pyk2(h) (Homo sapiens (Human), UniProt Q14289); assay: KinaseProfiler panel; design: dose or concentration left out as unconfirmed; settings: activity remaining
[15] = target: Ros(h) (Homo sapiens (Human), UniProt P08922); assay: KinaseProfiler panel; design: dose or concentration left out as unconfirmed; settings: activity remaining
Sequence of Ros(h) (P08922 28-2347): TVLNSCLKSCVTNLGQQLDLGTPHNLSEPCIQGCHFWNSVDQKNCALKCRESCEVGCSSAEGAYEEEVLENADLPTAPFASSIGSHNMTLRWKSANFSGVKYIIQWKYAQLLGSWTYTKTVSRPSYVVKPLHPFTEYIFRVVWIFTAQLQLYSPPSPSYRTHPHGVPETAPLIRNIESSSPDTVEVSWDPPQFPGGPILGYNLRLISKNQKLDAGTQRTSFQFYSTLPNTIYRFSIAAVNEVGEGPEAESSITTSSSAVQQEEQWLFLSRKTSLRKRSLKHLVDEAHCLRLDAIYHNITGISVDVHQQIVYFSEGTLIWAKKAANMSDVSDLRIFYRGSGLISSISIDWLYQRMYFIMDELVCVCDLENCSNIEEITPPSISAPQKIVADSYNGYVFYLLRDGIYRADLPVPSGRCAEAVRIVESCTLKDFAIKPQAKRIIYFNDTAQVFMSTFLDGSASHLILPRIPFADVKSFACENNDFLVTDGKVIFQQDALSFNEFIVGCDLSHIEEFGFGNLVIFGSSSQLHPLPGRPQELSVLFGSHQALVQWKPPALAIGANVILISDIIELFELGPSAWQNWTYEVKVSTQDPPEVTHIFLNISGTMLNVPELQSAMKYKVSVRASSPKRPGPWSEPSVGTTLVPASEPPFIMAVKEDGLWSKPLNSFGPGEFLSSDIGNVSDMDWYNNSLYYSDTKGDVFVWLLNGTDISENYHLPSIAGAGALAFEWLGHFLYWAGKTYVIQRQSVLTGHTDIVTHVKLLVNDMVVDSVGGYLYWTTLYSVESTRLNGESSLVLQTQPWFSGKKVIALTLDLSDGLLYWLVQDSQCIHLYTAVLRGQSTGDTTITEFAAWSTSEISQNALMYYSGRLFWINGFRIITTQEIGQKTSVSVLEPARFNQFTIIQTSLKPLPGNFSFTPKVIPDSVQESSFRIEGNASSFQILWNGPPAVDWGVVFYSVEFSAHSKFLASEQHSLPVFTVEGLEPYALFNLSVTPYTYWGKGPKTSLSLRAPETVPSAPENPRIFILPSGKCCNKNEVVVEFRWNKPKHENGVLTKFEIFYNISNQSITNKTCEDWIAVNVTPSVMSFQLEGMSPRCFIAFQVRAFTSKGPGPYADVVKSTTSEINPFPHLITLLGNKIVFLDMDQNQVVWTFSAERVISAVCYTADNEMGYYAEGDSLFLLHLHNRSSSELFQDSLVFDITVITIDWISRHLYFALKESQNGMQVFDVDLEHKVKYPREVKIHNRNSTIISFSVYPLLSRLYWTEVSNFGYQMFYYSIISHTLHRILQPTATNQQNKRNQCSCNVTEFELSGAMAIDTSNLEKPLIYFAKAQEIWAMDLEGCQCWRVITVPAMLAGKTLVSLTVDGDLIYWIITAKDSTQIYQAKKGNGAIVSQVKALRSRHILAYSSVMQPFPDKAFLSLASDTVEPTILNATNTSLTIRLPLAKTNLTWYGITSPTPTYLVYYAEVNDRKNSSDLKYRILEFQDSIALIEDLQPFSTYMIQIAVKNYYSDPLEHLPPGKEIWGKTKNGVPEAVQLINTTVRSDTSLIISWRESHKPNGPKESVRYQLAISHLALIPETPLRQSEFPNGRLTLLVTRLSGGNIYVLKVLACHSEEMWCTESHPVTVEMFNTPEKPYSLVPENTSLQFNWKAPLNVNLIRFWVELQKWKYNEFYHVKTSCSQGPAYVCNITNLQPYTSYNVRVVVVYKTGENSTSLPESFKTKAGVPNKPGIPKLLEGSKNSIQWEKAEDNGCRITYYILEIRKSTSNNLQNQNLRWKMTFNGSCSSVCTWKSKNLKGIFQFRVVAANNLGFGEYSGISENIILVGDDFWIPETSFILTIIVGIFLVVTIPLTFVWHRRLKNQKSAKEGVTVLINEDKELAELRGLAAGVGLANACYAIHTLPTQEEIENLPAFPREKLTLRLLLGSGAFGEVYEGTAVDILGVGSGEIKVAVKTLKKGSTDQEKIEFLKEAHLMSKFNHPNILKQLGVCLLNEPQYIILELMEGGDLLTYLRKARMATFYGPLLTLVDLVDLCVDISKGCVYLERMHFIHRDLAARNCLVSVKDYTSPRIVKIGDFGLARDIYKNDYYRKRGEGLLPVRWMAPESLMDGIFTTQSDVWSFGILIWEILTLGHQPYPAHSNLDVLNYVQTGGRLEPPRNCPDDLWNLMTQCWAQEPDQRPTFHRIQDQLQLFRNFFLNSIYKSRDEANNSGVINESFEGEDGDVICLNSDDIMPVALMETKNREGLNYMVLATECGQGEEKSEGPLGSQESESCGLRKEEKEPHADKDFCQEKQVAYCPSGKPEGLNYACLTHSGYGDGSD

[16] = target: PKCβI(h) (Homo sapiens (Human), UniProt P05771); assay: KinaseProfiler panel; design: dose or concentration left out as unconfirmed; settings: activity remaining
Sequence of PKCβI(h) (P05771 whole entry): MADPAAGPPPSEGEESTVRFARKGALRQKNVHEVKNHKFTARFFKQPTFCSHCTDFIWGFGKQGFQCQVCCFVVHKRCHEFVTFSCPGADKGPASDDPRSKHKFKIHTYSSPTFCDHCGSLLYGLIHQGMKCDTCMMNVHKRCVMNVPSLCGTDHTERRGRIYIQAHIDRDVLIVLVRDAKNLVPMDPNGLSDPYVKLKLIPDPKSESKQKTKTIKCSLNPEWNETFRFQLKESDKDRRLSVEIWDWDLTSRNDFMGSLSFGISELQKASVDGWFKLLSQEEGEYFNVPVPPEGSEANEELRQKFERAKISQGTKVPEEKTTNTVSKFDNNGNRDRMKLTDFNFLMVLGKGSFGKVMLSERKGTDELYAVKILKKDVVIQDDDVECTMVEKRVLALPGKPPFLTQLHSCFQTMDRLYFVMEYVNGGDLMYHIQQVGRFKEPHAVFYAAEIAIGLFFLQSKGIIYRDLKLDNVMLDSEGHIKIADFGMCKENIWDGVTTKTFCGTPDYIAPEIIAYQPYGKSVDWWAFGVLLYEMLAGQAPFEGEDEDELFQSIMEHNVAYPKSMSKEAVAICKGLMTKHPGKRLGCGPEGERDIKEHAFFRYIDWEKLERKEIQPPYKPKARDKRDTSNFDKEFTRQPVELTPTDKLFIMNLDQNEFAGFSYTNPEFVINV

[17] = target: NIM1(h) (Homo sapiens (Human), UniProt Q8IY84); assay: KinaseProfiler panel; design: dose or concentration left out as unconfirmed; settings: activity remaining
[18] = target: CDKL4(h) (Homo sapiens (Human), UniProt Q5MAI5); assay: KinaseProfiler panel; design: dose or concentration left out as unconfirmed; settings: activity remaining
[19] = target: MARK4(h) (Homo sapiens (Human), UniProt Q96L34); assay: KinaseProfiler panel; design: dose or concentration left out as unconfirmed; settings: activity remaining
[20] = target: PI3 Kinase (p110a/p85a)(h) (Homo sapiens (Human), UniProt P42336); assay: KinaseProfiler panel; design: dose or concentration left out as unconfirmed; settings: activity remaining

Sequence of BIKE(h) (Q9NSY1 whole entry): as the sequence (Q9NSY1 whole entry) above

Cc1cc2c(-c3ccc(NC(=O)[C@H](N)CC(C)(C)C)cc3C)ccnc2[nH]1 [Compound F-90, (2R)-2-Amino-4,4-dimethyl-N-[3-methyl-4-(2-methyl-1H-pyrrolo[2,3-b]pyridin-4-yl)phenyl]pentanamide]
% Activity [1]: 50% | % Activity [2]: 97% | % Activity [3]: 98% | % Activity [4]: 97% | IC50 [5]: 12 nM | % Activity [6]: 97% | % Activity [7]: 85% | % Activity [8]: 88% | IC50 [9]: 902 nM | % Activity [10]: 109% | % Activity [11]: 87% | % Activity [12]: 83% | % Activity [13]: 88% | % Activity [14]: 76% | % Activity [15]: 97% | % Activity [16]: 90% | % Activity [17]: 112% | % Activity [18]: 104% | % Activity [19]: 92% | % Activity [20]: 96%
